# According to the NIST ThermoML archive (doi:10.1016/j.jct.2015.07.042):
# ± gives the expanded uncertainty stated by the source.
# Assay: activity coefficient (dimensionless); of the first substance listed, at infinite dilution; xn = mol fraction of the nth substance listed
# Conditions: 101 kPa, Liquid, Chromatography, x1 = 0
Structure (SMILES),activity coefficient (358.15 K),activity coefficient (368.15 K),activity coefficient (378.15 K),activity coefficient (388.15 K),activity coefficient (398.15 K),activity coefficient (408.15 K),activity coefficient (418.15 K),activity coefficient (428.15 K)
C#CCCCC [1-hexyne] + CCCCn1cc[n+](C)c1.CS(=O)(=O)[O-],8.02 ± 0.55,8.52 ± 0.58,9.06 ± 0.62,9.64 ± 0.66,,,,
C#CCCCC [1-hexyne] + CCCCn1cc[n+](C)c1.[Cl-],7.33 ± 0.5,7.85 ± 0.54,8.19 ± 0.56,8.61 ± 0.59,,,,
CCC[N+](=O)[O-] [1-nitropropane] + CCCCn1cc[n+](C)c1.COP(=O)([O-])OC,1.5 ± 0.1,1.56 ± 0.1,1.62 ± 0.11,1.72 ± 0.12,,,,
CCC[N+](=O)[O-] [1-nitropropane] + CCCCn1cc[n+](C)c1.CS(=O)(=O)[O-],1.89 ± 0.13,1.96 ± 0.13,2.02 ± 0.14,2.13 ± 0.14,,,,
CCC[N+](=O)[O-] [1-nitropropane] + CCCCn1cc[n+](C)c1.[Cl-],2.51 ± 0.17,2.61 ± 0.18,2.69 ± 0.18,2.8 ± 0.19,,,,
C#CCCCCCC [1-octyne] + CCCCn1cc[n+](C)c1.COP(=O)([O-])OC,6.04 ± 0.41,6.22 ± 0.42,6.48 ± 0.44,6.74 ± 0.46,,,,
C#CCCCCCC [1-octyne] + CCCCn1cc[n+](C)c1.CS(=O)(=O)[O-],17.8 ± 1.2,18.6 ± 1.3,19.5 ± 1.3,20.4 ± 1.4,,,,
C#CCCCCCC [1-octyne] + CCCCn1cc[n+](C)c1.[Cl-],18.3 ± 1.2,19.2 ± 1.3,19.7 ± 1.4,20.4 ± 1.4,,,,
C#CCCC [1-pentyne] + CCCCn1cc[n+](C)c1.COP(=O)([O-])OC,2.18 ± 0.15,2.32 ± 0.16,2.46 ± 0.17,2.6 ± 0.18,,,,
C#CCCC [1-pentyne] + CCCCn1cc[n+](C)c1.CS(=O)(=O)[O-],5.46 ± 0.37,5.84 ± 0.4,6.26 ± 0.43,6.67 ± 0.45,,,,
C#CCCC [1-pentyne] + CCCCn1cc[n+](C)c1.[Cl-],4.89 ± 0.33,5.25 ± 0.36,5.51 ± 0.38,5.78 ± 0.39,,,,
CCOC(C)(C)C [2-ethoxy-2-methylpropane] + CCCCn1cc[n+](C)c1.COP(=O)([O-])OC,12.8 ± 0.87,12.8 ± 0.87,12.9 ± 0.88,12.9 ± 0.88,,,,
CCOC(C)(C)C [2-ethoxy-2-methylpropane] + CCCCn1cc[n+](C)c1.CS(=O)(=O)[O-],35.3 ± 2.4,35.6 ± 2.4,36.1 ± 2.5,36.6 ± 2.5,,,,
CCOC(C)(C)C [2-ethoxy-2-methylpropane] + CCCCn1cc[n+](C)c1.[Cl-],64.8 ± 4.4,59.3 ± 4.1,55.7 ± 3.8,53.3 ± 3.6,,,,
CCC(C)(C)OC [2-methoxy-2-methylbutane] + CCCCn1cc[n+](C)c1.COP(=O)([O-])OC,9.5 ± 0.65,9.61 ± 0.66,9.66 ± 0.66,9.75 ± 0.67,,,,
CCC(C)(C)OC [2-methoxy-2-methylbutane] + CCCCn1cc[n+](C)c1.CS(=O)(=O)[O-],23.8 ± 1.6,24.2 ± 1.6,24.7 ± 1.7,25.3 ± 1.7,,,,
CCC(C)(C)OC [2-methoxy-2-methylbutane] + CCCCn1cc[n+](C)c1.[Cl-],34 ± 2.3,33.1 ± 2.3,32.2 ± 2.2,32.1 ± 2.2,,,,
COC(C)(C)C [2-methoxy-2-methylpropane] + CCCCn1cc[n+](C)c1.COP(=O)([O-])OC,7.17 ± 0.49,7.35 ± 0.5,7.48 ± 0.51,7.66 ± 0.52,,,,
COC(C)(C)C [2-methoxy-2-methylpropane] + CCCCn1cc[n+](C)c1.CS(=O)(=O)[O-],17 ± 1.2,17.4 ± 1.2,17.9 ± 1.2,18.6 ± 1.3,,,,
COC(C)(C)C [2-methoxy-2-methylpropane] + CCCCn1cc[n+](C)c1.[Cl-],24.6 ± 1.7,23.8 ± 1.6,23 ± 1.6,22.9 ± 1.6,,,,
CC(C)CO [2-methyl-1-propanol] + CCCCn1cc[n+](C)c1.COP(=O)([O-])OC,,,,,0.23 ± 0.029,0.254 ± 0.03,0.281 ± 0.03,0.313 ± 0.031
CC(C)CO [2-methyl-1-propanol] + CCCCn1cc[n+](C)c1.CS(=O)(=O)[O-],,,,,0.893 ± 0.057,0.938 ± 0.059,0.991 ± 0.062,1.04 ± 0.066
CC(C)CO [2-methyl-1-propanol] + CCCCn1cc[n+](C)c1.[Cl-],,,,,0.54 ± 0.039,0.576 ± 0.041,0.615 ± 0.043,0.665 ± 0.045
